The values that follow come from ChEMBL document CHEMBL3797053, “2-Alkoxy-3-(sulfonylarylaminomethylene)-chroman-4-ones as potent and selective inhibitors of ectonucleotidases” (Eur J Med Chem, 2016).

pIC50, pKi: −log10 of the molar value. Activity calls are given as the source filed them. No cut-off for these calls is given here.

For assay [1], the target named is T1, 5'-nucleotidase (Rattus norvegicus, UniProt P21588).
T1 sequence (P21588 whole entry): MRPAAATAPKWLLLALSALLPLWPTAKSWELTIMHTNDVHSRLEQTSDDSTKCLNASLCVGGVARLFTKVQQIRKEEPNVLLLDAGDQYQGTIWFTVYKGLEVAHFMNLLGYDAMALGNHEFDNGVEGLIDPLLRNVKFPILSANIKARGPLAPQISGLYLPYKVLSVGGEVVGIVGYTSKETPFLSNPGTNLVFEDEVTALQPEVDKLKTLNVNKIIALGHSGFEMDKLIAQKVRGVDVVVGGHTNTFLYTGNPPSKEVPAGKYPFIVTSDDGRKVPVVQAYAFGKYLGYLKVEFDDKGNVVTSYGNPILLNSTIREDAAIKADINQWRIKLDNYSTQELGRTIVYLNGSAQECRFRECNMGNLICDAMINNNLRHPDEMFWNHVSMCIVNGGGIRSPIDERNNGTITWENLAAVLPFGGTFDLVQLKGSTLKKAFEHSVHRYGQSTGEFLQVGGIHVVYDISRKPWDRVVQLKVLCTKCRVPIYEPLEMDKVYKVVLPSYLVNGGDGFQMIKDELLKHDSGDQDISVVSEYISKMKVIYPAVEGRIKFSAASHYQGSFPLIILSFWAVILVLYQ
The experiment in a line: Inhibition of rat Ecto-5'-nucleotidase transfected in COS7 cells preincubated for 10 mins followed by AMP addition measured after 10 mins. The class given is cell-based, COS-7.

The target of assay [2] is T2, 5'-nucleotidase (Rattus norvegicus) (UniProt P21588).
T2 sequence (whole entry): T1 sequence (P21588 whole entry)
The conditions noted are these: COS-7, 0.5 to 2 uM.
Description: Uncompetitive inhibition of rat Ecto-5'-nucleotidase transfected in COS7 cells at 0.5 to 2 uM preincubated for 10 mins followed by AMP addition measured after 10 mins by double-reciprocal plot analysis

Assay [3] has as its target T2, 5'-nucleotidase (Rattus norvegicus). Briefly: Inhibition of rat Ecto-5'-nucleotidase transfected in COS7 cells at 1 mM preincubated for 10 mins followed by AMP addition measured after 10 mins. The conditions noted are these: COS-7. It counts as cell-based.
For assay [4], the target named is T3, Alkaline phosphatase, tissue-nonspecific isozyme (Bos taurus, UniProt P09487).
T3 sequence (P09487 whole entry): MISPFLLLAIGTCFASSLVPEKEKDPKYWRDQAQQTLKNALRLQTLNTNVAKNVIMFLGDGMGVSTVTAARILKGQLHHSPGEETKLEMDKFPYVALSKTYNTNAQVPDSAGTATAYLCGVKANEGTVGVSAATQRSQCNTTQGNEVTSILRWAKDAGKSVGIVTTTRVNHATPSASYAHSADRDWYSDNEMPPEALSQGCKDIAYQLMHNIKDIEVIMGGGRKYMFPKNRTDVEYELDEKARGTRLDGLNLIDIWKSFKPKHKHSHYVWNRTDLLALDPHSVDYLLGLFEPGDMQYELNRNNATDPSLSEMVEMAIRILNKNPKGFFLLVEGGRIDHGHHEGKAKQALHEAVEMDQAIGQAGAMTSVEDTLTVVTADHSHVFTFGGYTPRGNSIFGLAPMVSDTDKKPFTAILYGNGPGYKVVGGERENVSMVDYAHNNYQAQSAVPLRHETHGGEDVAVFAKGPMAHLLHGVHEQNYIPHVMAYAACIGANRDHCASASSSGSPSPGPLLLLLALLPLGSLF
The experiment in a line: Inhibition of bovine tissue non-specific alkaline phosphatase preincubated for 3 to 5 mins followed by CDP-star substrate addition measured after 15 mins by luminescence assay.

For assay [5], the target named is Intestinal-type alkaline phosphatase (Bos taurus, UniProt P19111). Briefly: Inhibition of calf intestinal alkaline phosphatase preincubated for 3 to 5 mins followed by CDP-star substrate addition measured after 15 mins by luminescence assay.
Sequence of Intestinal-type alkaline phosphatase (P19111 whole entry): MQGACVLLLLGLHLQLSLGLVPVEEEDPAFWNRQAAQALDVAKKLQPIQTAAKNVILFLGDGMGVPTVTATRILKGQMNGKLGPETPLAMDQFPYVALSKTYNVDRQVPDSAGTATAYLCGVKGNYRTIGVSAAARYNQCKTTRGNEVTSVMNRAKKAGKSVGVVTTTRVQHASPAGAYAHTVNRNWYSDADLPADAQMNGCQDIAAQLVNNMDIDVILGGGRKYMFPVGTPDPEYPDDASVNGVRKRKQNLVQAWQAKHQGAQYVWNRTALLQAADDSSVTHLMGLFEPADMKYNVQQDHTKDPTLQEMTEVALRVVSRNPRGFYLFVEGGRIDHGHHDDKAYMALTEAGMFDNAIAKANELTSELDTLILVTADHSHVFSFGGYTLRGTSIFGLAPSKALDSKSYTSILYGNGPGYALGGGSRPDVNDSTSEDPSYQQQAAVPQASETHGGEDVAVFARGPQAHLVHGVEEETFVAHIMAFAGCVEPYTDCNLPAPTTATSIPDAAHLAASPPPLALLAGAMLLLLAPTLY
The target in assay [6] is T4, 5'-nucleotidase (Homo sapiens, UniProt P21589). Briefly: Inhibition of human Ecto-5'-nucleotidase transfected in COS7 cells preincubated for 10 mins followed by AMP addition measured after 10 mins. It counts as cell-based, COS-7.
T4 sequence (P21589 whole entry): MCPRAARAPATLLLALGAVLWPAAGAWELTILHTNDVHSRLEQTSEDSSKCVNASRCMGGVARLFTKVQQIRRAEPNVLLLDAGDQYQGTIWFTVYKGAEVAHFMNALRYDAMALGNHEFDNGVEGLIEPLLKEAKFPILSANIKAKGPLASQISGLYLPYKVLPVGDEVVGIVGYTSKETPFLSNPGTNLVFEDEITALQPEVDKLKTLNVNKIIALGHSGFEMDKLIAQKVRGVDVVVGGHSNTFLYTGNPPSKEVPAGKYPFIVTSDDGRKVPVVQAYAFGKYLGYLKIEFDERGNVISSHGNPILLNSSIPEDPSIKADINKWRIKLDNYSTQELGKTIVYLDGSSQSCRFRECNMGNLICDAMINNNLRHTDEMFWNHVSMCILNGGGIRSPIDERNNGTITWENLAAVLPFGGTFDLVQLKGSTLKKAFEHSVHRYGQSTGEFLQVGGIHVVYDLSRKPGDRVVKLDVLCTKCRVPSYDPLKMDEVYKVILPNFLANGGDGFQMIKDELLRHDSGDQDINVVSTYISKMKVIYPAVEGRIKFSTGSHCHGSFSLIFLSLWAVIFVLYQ
In assay [7] the target is T4, 5'-nucleotidase. The conditions noted are these: COS-7, 0.5 to 2 uM.
The target of assay [8] is Intestinal-type alkaline phosphatase (Bos taurus) (UniProt P19111). The conditions noted are these: 0.5 to 2 uM.
Sequence of Intestinal-type alkaline phosphatase (Bos taurus) (P19111 20-506 limits assumed): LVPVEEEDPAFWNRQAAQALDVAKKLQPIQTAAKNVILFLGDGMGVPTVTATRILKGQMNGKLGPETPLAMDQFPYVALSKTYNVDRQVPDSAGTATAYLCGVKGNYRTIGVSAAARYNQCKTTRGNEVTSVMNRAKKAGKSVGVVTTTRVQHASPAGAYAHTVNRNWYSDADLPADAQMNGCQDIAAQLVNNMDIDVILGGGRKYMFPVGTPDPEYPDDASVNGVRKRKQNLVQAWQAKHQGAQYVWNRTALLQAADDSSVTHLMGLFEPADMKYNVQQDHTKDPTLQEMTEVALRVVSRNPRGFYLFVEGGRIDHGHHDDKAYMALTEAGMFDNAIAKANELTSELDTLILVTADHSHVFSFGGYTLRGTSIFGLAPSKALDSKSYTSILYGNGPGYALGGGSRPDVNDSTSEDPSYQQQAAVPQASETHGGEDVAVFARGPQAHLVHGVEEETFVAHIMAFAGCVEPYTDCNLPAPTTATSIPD
Description: Competitive inhibition of calf intestinal alkaline phosphatase at 0.5 to 2 uM preincubated for 3 to 5 mins followed by CDP-star substrate addition measured after 15 mins by double-reciprocal plot analysis
Assay [9] deals with T5, Alkaline phosphatase, tissue-nonspecific isozyme (Bos taurus) (UniProt P09487).
T5 sequence (whole entry): T3 sequence (P09487 whole entry)
Briefly: Inhibition of bovine tissue non-specific alkaline phosphatase at 0.2 mM preincubated for 3 to 5 mins followed by CDP-star substrate addition measured after 15 mins by luminescence assay.

The target in assay [10] is T4, 5'-nucleotidase. The experiment in a line: Inhibition of human Ecto-5'-nucleotidase transfected in COS7 cells at 1 mM preincubated for 10 mins followed by AMP addition measured after 10 mins. The class given is cell-based. The conditions noted are these: COS-7.
Assay [11] concerns the target T5, Alkaline phosphatase, tissue-nonspecific isozyme (Bos taurus). The experiment in a line: Competitive inhibition of bovine tissue non-specific alkaline phosphatase at 0.5 to 2 uM preincubated for 3 to 5 mins followed by CDP-star substrate addition measured after 15 mins by double-reciprocal plot analysis.
Assay [12] is filed under the species Bos taurus. Briefly: Selectivity ratio of Ki for calf intestinal alkaline phosphatase to Ki for bovine tissue non-specific alkaline phosphatase.

One may read the pIC50 as the IC50 on a negative log10 scale, so that one unit is a factor of ten. Broadly, the pKi is the negative decadic logarithm of the Ki, by convention in mol/L. A high value points to a low Ki. As a reminder, the inhibition is the drop in the measured response relative to a control, in per cent. For `CCOC1Oc2c(Br)cc(Br)cc2C(=O)/C1=C\Nc1cccc(S(N)(=O)=O)c1` (racemic), in assay [1], the pIC50 was 6.23 and the pKi was 7.57. Further, the inhibition entry in assay [2] was “Active”.

Turning to `CC(C)OC1Oc2ccccc2C(=O)/C1=C\Nc1cccc(S(N)(=O)=O)c1` (racemic), the inhibition in assay [3] was found to be 25.7%. Besides, the values for the pIC50 in [4], in assay [5] and in [6] were 3.95, 4.75 and 6.54, respectively. Moreover, the pKi is 4.32 in assay [4], 5.12 in assay [5] and 7.85 in [6]. In addition, in assay [7], the inhibition result is “Active”.

`COC1Oc2ccccc2C(=O)/C1=C\Nc1ccc(S(N)(=O)=O)cc1` (racemic): the inhibition in [3] is 27.7%. Further, the results for the pIC50 in [4], in assay [5] and in assay [6] were 3.77, 6.25 and 5.15, respectively. In addition, the figures for the pKi in assay [4], in assay [5] and in assay [6] were 4.14, 6.62 and 6.47, respectively. For the same compound, in assay [8], the inhibition entry is “Active”.

In the case of `COC1Oc2ccc(Cl)cc2C(=O)/C1=C\Nc1ccccc1S(N)(=O)=O` (racemic), the figures for the pIC50 in assay [5], in assay [6] and in [1] were 5.63, 5.87 and 5.88, respectively. The pKi in [5] is 6.00; in [6], 7.19; in assay [1], 7.21. In [9], this compound came in with an inhibition of 29.9%.

With `COC1Oc2ccc(C)cc2C(=O)/C1=C\Nc1ccccc1S(N)(=O)=O` (racemic), the inhibition in assay [3] amounted to 47.8%; in [10], 39.1%. The pIC50 in [4] is 6.74; in assay [5] it was 5.30. The pKi was 7.11 in assay [4] and 5.66 in assay [5]. Also, the inhibition result in [11] is “Active”. Further, the Ratio Ki in assay [12] turned out to be 28.

On to `COC1Oc2ccc(Cl)cc2C(=O)/C1=C\Nc1ccc(S(N)(=O)=O)cc1` (racemic), for which the pIC50 in assay [5] was 5.35; in [6] it was 5.78; in assay [1], 5.77. Also, the pKi in assay [5] was 5.72; in assay [6], 7.10; in [1], 7.09. In [9], this compound showed an inhibition of 20.9%.
